For experiment [1], the system named is R1881-induced AR translocation to the nucleus. As to the kind of experiment: AR translocation, immunocytochemistry in LNCaP cells. Conditions: 10 μM for three hours, then 1 nM R1881 for three hours (FIG. 7). Format: cell-based, human. As to the method: FIG. 7 is a graph showing the results of an AR translocation experiment. LNCaP cells were incubated on cover slips in phenol red free RPMI 1640 with 10% charcoal stripped FBS and 1% antimycotic-antibiotic solution for three days. Cells were treated with DMSO, bicalutamide (10 μM) or Compound 11 for three hours, followed by treatment with 1 nM R1881 for three hours. Cells were washed with PBS, fixed with 0.4% paraformaldehyde for 30 min at 37° C., washed with PBS, permeabilized with 0.4% Triton X-100 for 10 min, and then stained with anti-AR antibody (1:100 dilution, Santa Cruz Biotechnology, Santa Cruz, Calif.) for 1 hour at room temperature. After washing with PBS, cells were stained with FITC-labeled goat anti-rabbit IgG (1:200 dilution, BD Biosciences, San Jose, Calif.) for 1 hour at room temperature. After washing with PBS, cells were incubated for 10 min with Hoechst 33342 for nuclear staining, washed, and the dried cover slips were mounted on glass slides with SlowFade Gold anti-fade reagent (Invitrogen). Fluorescence images were obtained using a Leica® DM IRB fluorescence microscope, and nuclear-to-cytoplasmic AR ratios were measured using OpenLab® (Perkin Elmer, Waltham, Mass.) software. […]

Experiment [2] concerns PSA mRNA expression in LNCaP cells. The experiment is described as follows: PSA mRNA expression in LNCaP cells, real time RT-PCR. The experiment is classed as cell-based, human. Conditions: for block of R1881-induced PSA mRNA induction: in the presence of R1881, dose-dependent manner (FIG. 6); for inhibition of PSA mRNA: LNCaP cells (FIG. 12); for inhibition of PSA mRNA expression: 500 nM (FIG. 9); for agonistic effects on PSA and TMPRSS2 mRNA levels: dose dependent study (FIG. 9). As to the method:
FIG. 3 is a graph showing the inhibition of PSA mRNA expression. […] As shown in the graph, a hit was identified that inhibited over 90% PSA mRNA expression in LNCaP cells at 10 μM after 20 hours of treatment.
(§1) LNCaP cells were incubated for 3 days in phenol red-free RPMI 1640 supplemented with 10% charcoal-stripped FBS and 1% antimycotic-antibiotic solution, and then cells were treated for 20 hours. The concentration of R1881 was 0.5 nM, and that of the corresponding compounds was 10, 5 or 1 μM, respectively. Compound 49 inhibited PSA mRNA expression 80% in the presence of R1881 at 5 μM. This activity was similar to bicalutamide.
(§2) For PSA, TMPRSS2, and UBE2C mRNA determination, LNCaP cells or 22Rv1 cells, were cultured and treated with the corresponding compounds for 20 hours in the presence or absence of the synthetic androgen R1881. Total RNA was isolated from cultured cells using the RNeasy RNA Isolation Kit (Qiagen). The RNAs were reverse transcribed immediately after RNA extraction with the High Capacity cDNA Reverse Transcription Kit (Applied Biosystems), using random primers included in the kit, according to the manufacturer's instructions. The cDNA products were stored at −20° C. until the PCR analysis was performed. Real-time PCR primers were designed using Primer Express Applications (Applied Biosystems). The primer sequences for real-time PCR were as follows:
(§3) The mRNA level and total protein in cells were measured after treatment with either control, bicalutamide (0.08 μM to 1.25 μM), or MDV3100 (an antiandrogen) and either about 2.5 μM or about 1.0 μM of Compounds 1-117 respectively. It was known that the expression of PSA mRNA in LNCaP cells is driven by an AR mediated pathway. While PSA is androgen-dependent AR-target gene, UBE2C is androgen-independent AR-target gene. The PSA, TMPRSS2 and UBE2C mRNA levels were normalized by the rRNA level.
For orientation: In qPCR the cycle at which signal appears reflects the starting amount.

The subject of experiment [3] is TMPRSS2 mRNA expression in LNCaP cells. As to the kind of experiment: TMPRSS2 mRNA expression in LNCaP cells, real time RT-PCR. The experiment is classed as cell-based, human. To be noted: for block of R1881-induced TMPRSS2 mRNA induction: in the presence of R1881, dose-dependent manner (FIG. 6); for inhibition of TMPRSS2 mRNA: LNCaP cells (FIG. 12). As for the experimental part:
as §1, §2, §3

Experiment [4] has as its system UBE2C mRNA expression in LNCaP cells. The experiment is described as follows: UBE2C mRNA expression in LNCaP cells, real time RT-PCR. The experiment is classed as cell-based, human. Conditions: LNCaP cells (FIG. 12). As for the experimental part:
as §2, §3

Experiment [5] deals with PSA mRNA expression in 22Rv1 cells. As to the kind of experiment: PSA mRNA expression in 22Rv1 cells, real time RT-PCR. The experiment is classed as cell-based, human. As to the method:
as §2
[…] It was known that the expression of PSA mRNA in LNCaP cells is driven by an AR mediated pathway. While PSA is androgen-dependent AR-target gene, UBE2C is androgen-independent AR-target gene. The PSA, TMPRSS2 and UBE2C mRNA levels were normalized by the rRNA level.

The test system of experiment [6] is UBE2C mRNA expression in 22Rv1 cells. As to the kind of experiment: UBE2C mRNA expression in 22Rv1 cells, real time RT-PCR. Format: cell-based, human. Conditions: 22Rv1 cells (FIG. 13). As for the experimental part: as §2, §3
Experiment [7] concerns LNCaP cells. As to the kind of experiment: LNCaP cell growth, Trypan blue viable cell count. The experiment is classed as cell-based. Conditions: Homo sapiens, 72 h, 3 days incubation, Trypan blue viable cell number, read-out: IC50 of LNCaP cell growth inhibition. As for the experimental part: LNCaP cells were incubated with Compound 49 for 3 days. Viable cell number was determined by Trypan blue staining and counting in a hemocytometer. The IC50 value of Compound 49 was 3 μM.

Experiment [8] deals with AR in LNCaP cells. The experiment is described as follows: AR Western blot, LNCaP cells treated 6 hours. Format: cell-based, human. Conditions: 10 μM (data not shown). As for the experimental part: LNCaP cells were maintained as above. At 50% confluence, cells were washed several times in serum-free RPMI-1640 medium, and re-cultured for 72 hours in RPMI-1640 medium containing 10% charcoal-stripped fetal bovine serum. Cells were treated with R1881 (0.5 nM), with, or without 10 μM, 5 μM or 1 μM of Compounds 1-117, and then cells were cultured for 20 hours. Nuclear and cytoplasmic protein fractionation was performed using NE-PER Nuclear and Cytoplasmic Extraction Reagents Kit (Thermo Scientific Pierce Protein Research Products) according to the manufacturer's instructions. Quantification of AR in nucleus and cytosol was performed by Western blotting with an AR-specific antibody following polyacrylamide gel electrophoresis.
LNCaP cells were also tested after treatment for only 6 hours. Compounds 49, 80 and 86, as well as KU135 (a C-terminal Hsp90 inhibitor) and 17-AAG (a known AR degradation inducer), were tested at 2.5, 5, and 10 μM as well as control (DMSO vehicle). […] LAPC-4 cells (a human prostate cancer cell line with wt AR) were tested against Compounds 80, 86, KU-32 (another C-terminal Hsp90 inhibitor) and 17-AAG.

For experiment [9], the system named is genome-wide transcriptional response. As to the kind of experiment: Microarray analysis of genome-wide transcriptional response. The experiment is classed as cell-based, human. As to the method: This example illustrates that Compound 86 has an impact on AR-driven gene expression (PSA) and androgen-independent AR-driven gene expression (e.g., UBE2C). A microarray analysis was performed on the genome-wide transcriptional response to Compound 86 compared with the antiandrogens bicalutamide and MDV3100, and solvent DMSO. Each compound was tested at two concentrations: 1 and 5 μM. The data were subjected to bioinformatics analysis using the Partek Genomics Software. […] FIG. 19B depicts a different view in 3-dimensional space again reinforcing the differences between Compound 86 versus DMSO, bicalutamide and MDV3100. This visual assessment is consistent with the data showing that Compound 86 and not DMSO, bicalutamide, or MDV3100, can inhibit the androgen-independent, androgen receptor-dependent transcriptional program of castrate-resistant prostate cancer.

Experiment [10] concerns TMPRSS2 mRNA expression in 22Rv1 cells. As to the kind of experiment: TMPRSS2 mRNA expression in 22Rv1 cells, real time RT-PCR. Format: cell-based, human. To be noted: 22Rv1 cells (FIG. 13). As to the method: as §2, §3
Setting [11] is: LNCaP cells, synthetic androgen R1881 (FIG. 6).

Consider `COc1ccc(C(=O)/C=C/c2ccc([N+](=O)[O-])cc2)c(OC)c1OC` [Compound 11], for which the “inhibition of R1881-induced AR translocation to the nucleus (nuclear-to-cytoplasmic AR ratio)” value in [1] is recorded as “markedly more active than bicalutamide”. For the same molecule, in [2], the “block of R1881-induced PSA mRNA induction” value is “blocked”. The “block of R1881-induced TMPRSS2 mRNA induction” value in [3] is “blocked”.

Take `COc1ccc(C(=O)/C=C/c2cccc([N+](=O)[O-])c2)c(OC)c1OC` [Compound 12]: the “agonistic effect on AR target gene expression” value in experiment [2] (1 μM, PSA and TMPRSS2, in the presence of R1881 (FIG. 6)) was “weak agonistic effect”. Also, in [2] (high concentrations, PSA and TMPRSS2, in the presence of R1881), the “activity in blocking R1881-induced AR target gene expression relative to Compound 11” value was “more active”. Further, the “block of R1881-induced PSA mRNA induction” value in experiment [2] is “blocked”. For the same molecule, the “block of R1881-induced TMPRSS2 mRNA induction” value in [3] is given as “blocked”.

Consider `COc1ccccc1C(=O)/C=C/c1ccccc1[N+](=O)[O-]` [Compound 49], for which the “inhibition of UBE2C mRNA” value in [4] is on record as “not effective”. Moreover, the “inhibition of PSA mRNA expression compared to control” value in [5] (22Rv1 cells (FIG. 13)) is reported as 80%. Also, the “inhibition of UBE2C mRNA expression” value in experiment [6] is “completely failed to inhibit”. Besides, the “inhibition of PSA mRNA” value in experiment [2] was “inhibited”. In [2] (LNCaP cells, 0.5 nM R1881, 5 μM, 20 hours (FIG. 10)), the “inhibition of PSA mRNA expression in the presence of R1881” value is given as 80%. Also, in [2] (LNCaP cells), the “inhibition of PSA mRNA expression” value stood at 50%; the “agonistic effects on PSA and TMPRSS2 mRNA levels” value was “No agonistic effects”. Besides, the “inhibition of TMPRSS2 mRNA” value in experiment [3] is “inhibited”. In experiment [7], the IC50 was determined as 3000 nM.

For the molecule `COc1cc(C(=O)/C=C/c2cccc([N+](=O)[O-])c2)cc(OC)c1OC` [Compound 80], the “inhibition in AR Western blot” value in [8] is “showed inhibition”.

Regarding `COc1ccc(C(=O)/C=C/c2ccc(C#N)cc2)cc1OC` [Compound 103], in experiment [4], the “inhibition of UBE2C mRNA” value is given as “not effective”. For the same molecule, in [2], the “inhibition of PSA mRNA” value is “inhibited”. For the same molecule, in experiment [2] (LNCaP cells), the “inhibition of PSA mRNA expression” value is listed as 50%; the “agonistic effects on PSA and TMPRSS2 mRNA levels” value is “No agonistic effects”. Moreover, the “inhibition of TMPRSS2 mRNA” value in experiment [3] is “inhibited”.

In the case of `C[C@]1(O)CC[C@H]2[C@@H]3CCC4=CC(=O)CCC4=C3C=C[C@@]21C` [Compound R1881, methyltrienolone, reference compound], the “PSA mRNA induction compared with the DMSO control” value in experiment [2] (setting [11]) is listed as “about 500 fold”. Further, in experiment [3] (setting [11]), the “TMPRSS2 mRNA induction compared with the DMSO control” value is on record as ~30 fold.

Turning to `CNC(=O)c1ccc(N2C(=S)N(c3ccc(C#N)c(C(F)(F)F)c3)C(=O)C2(C)C)cc1F` [MDV3100, 4-(3-(4-cyano-3-(trifluoromethyl)phenyl)-5,5-dimethyl-4-oxo-2-thioxoimidazolidin-1-yl)-2-fluoro-N-methylbenzamide], in experiment [9], the “inhibition of the androgen-independent, androgen receptor-dependent transcriptional program of castrate-resistant prostate cancer” value is on record as “not”. Also, in experiment [5] (22Rv1 cells, 20 hours of exposure, 10 μM (FIG. 14)), the “sensitivity of PSA mRNA expression” value was “insensitive”.

For the molecule `CC(O)(CS(=O)(=O)c1ccc(F)cc1)C(=O)Nc1ccc(C#N)c(C(F)(F)F)c1` (stereo not drawn) [bicalutamide, reference compound], in experiment [10], the “inhibition of TMPRSS2 mRNA expression” value is given as “No inhibition”. The “inhibition of PSA mRNA expression” value in experiment [5] (22Rv1 cells (FIG. 13)) is listed as “No inhibition”. Moreover, the “inhibition of UBE2C mRNA expression” value in experiment [6] is reported as “No inhibition”. Further, the concentration for half-maximal inhibition (IC50) in experiment [2] (Homo sapiens, LNCaP cells, dose-dependent study (FIG. 4), read-out: IC50 of PSA mRNA inhibition) was 300 nM.

One may read the IC50 as the midpoint of a concentration-inhibition curve.
